In patent publication EP1149836B1, “Polynalbuphine derivatives” (Hu, Oliver Yoa-Pu, priority 2000, dated 2001):
Where “and” joins values, the source holds several entries; their conditions need not be identical. Equal entries are not always repeated. Structures can show the parent of a compound that is named as a salt.

Columns and labels:
[1] = half-life of dinalbuphine sebacoyl ester in rat blood, HPLC; type: in vitro ADME
Description: • (a) Dinalbuphine sebacoyl ester(SDN) was dissolved in acetonitrile, the concentration was 7.75 mg/ml. • (b) 250 ml of whole blood was collected from rat administered with the thus formed dinalbuphine sebacoyl ester soft drug, and was added with anticoagulant.
(§1) All blood collections were analyzed by HPLC.

[2] = half-life of dinalbuphine sebacoyl ester in rabbit blood, HPLC; type: in vitro ADME
Description: • (a) Dinalbuphine ester sebacoyl ester was dissolved in acetonitrile, the concentration was 5.2 mg/ml. • (b) 150 ml of whole blood was collected from rabbit administered with the thus formed dinalbuphine sebacoyl ester soft drug, and was added with anticoagulant.
as §1

[3] = half-life of dinalbuphine sebacoyl ester in dog blood, HPLC; type: in vitro ADME
Description: • (a) Dinalbuphine sebacoyl ester was dissolved in acetonitrile, the concentration was 12.5 mg/ml. • (b)200 ml of whole blood was collected from dog administered with the thus formed dinalbuphine sebacoyl ester soft drug, and was added with anticoagulant.
as §1

[4] = half-life of dinalbuphine sebacoyl ester in human blood, HPLC; type: in vitro ADME
Description: • (a) Dinalbuphine sebacoyl ester was dissolved in acetonitrile, the concentration was 10 mg/ml. • (b) 250 ml of whole blood was collected from human administered with the thus formed dinalbuphine sebacoyl ester soft drug, and was added with anticoagulant.
as §1

[5] = analgesic effect after intramuscular injection to rats, polynalbuphine derivative study; type: in vivo, Sprague Dawley rats
Description: In the experiment, a circulating cold ethanol bath with a temperature maintained at -20°C was set up. After dosing, the rat tail(1/3 from the tip) was immersed in the bath. The latency for the rat to flick its tail from the bath was measured to be the analgesic threshold. The effect of various opium alkaloid preparations can be determined with this test.
The analgesic effect can be calculated as follows: analgesic effect (%) = (flicking time after dosing - flicking time before dosing ) / (test terminated time - flicking time before dosing ) X 100% [formula]
(§2) Six male Sprague Dawley rats (175 to 225 g), and six male guinea pig(200 to 250 g) were used.

[6] = clinical / estimated analgesic duration in humans; type: in vivo; settings: 125 µM/ kg administered to a human body
Description: The analgesic effect was extended to 4-5 days, when the dose administered was below 125 µM/kg. […] The same level of analgesic effect for intramuscular injection to rats was required at 15.625 µM/kg(6.165 mg/kg).
Therefore, the analgesic effect is estimated 4-5 days when 125 µM/ kg of sebacoyl dinalbuphine ester is administered to a human body.
The amount of the aforesaid injection was about 10 ml. However, the analgesic effect could not be maintained 4 to 5 days even upon administration of 88 ml of Malbuphine hydrochloride because of metabolism. Besides, such parenteral volume was not ideal for a single dose. This invention made an improvement. By diluting a single dose of sebacoyl dinalbuphine in 7.15 ml sesame oil form, parenteral administration could maintain the analgesic effect 4 to 5 days.

[7] = pharmacokinetic study of long acting preparation in Beagle dog; type: in vivo, Beagle dogs
Description: Six Beagle dogs were used. Five Beagle dogs were intramuscularly injected with 30 mg/kg long acting sebacoyl dinalbuphine ester oily parenteral administration respectively, and another one was injected with 100 mg/kg long acting sebacoyl dinalbuphine ester oily parenteral administration. Blood samples were collected through the veins in front limbs of the dogs at 1, 2, 6, 24, 30, 48, 54, 72, 78, 96, 102, 120, 168, 192 hours. […] The relationship between time and concentration was analyzed by PCNONLIN computer program. Two-compartment model and pharmacokinetic parameters were calculated to depict absorption, distribution, metabolism, and excretion of drugs in the dogs.

[8] = in vitro release of Nalbuphine from vehicles (dialysis bag, UV); type: physicochemical; settings: Fig. 2, p<0.05
[9] = after continuous use for 6 months; cited from earlier work
[10] = cold ethanol tail flick test, dose response and MonoNalbuphine derivative study; settings: rats; for maximal analgesic effect found at (dose): intramuscularly injection, Figure 4
Description: Each group consisted of 6 rats, and each rat was injected once intramuscularly on the rear leg.
The dose for each rat was 25 micromole per kg, intramuscularly.
The time to stop the experiment was set at 40 seconds to prevent the tail from cold sore. No cold sores were found within 40 sec. Five minutes after the drug was given to the rat, the flick test was performed every 10 minutes or more.

[11] = analgesic effect after intramuscular injection to guinea pigs; type: in vivo, guinea pig; settings: 500 µM/kg and 250 µM/kg, Figure 7
Source text: as §2

[12] = pharmacokinetic study of long acting preparation in Beagle dog; set-up: species or system Beagle dogs; settings: in vivo, comparison with sebacoyl dinalbuphine ester, read-out: half life for excretion (converted)
[13] = in vivo; cited from earlier work

Question: Which results are given for `O=C(CCCCCCCCC(=O)Oc1ccc2c3c1O[C@H]1[C@@H](O)CC[C@@]4(O)[C@@H](C2)N(CC2CCC2)CC[C@]314)Oc1ccc2c3c1O[C@H]1[C@@H](O)CC[C@@]4(O)[C@@H](C2)N(CC2CCC2)CC[C@]314` [sebacoyl dinalbuphine ester]?
Answer: converted time, which converts 90% dinalbuphine sebacoyl ester(SDN) into Nalbuphine ([1]; rat): 10 min; half-life ([1]; rat blood test, read-out: half life): 2.8 min; half-life ([1]; rat plasma, read-out: Elimination Half-life): 2.8 min; half-life ([1]; rat whole blood, n=3, mean± S.E, read-out: Elimination Half-life): 2.2 ± 0.5 min; half-life ([1]; red blood cells, rat red blood cell, n=3, mean± S.E, read-out: Elimination Half-life): 2.3 ± 0.6 min; converted time, which converts 90% dinalbuphine sebacoyl ester(SDN) into Nalbuphine ([2]; rabbit): 25 min; half-life ([2]; rabbit blood test, read-out: half life): 7 min; half-life ([2]; rabbit plasma, n=3, mean± S.E, read-out: Elimination Half-life): 6.98 ± 0.03 min; half-life ([2]; rabbit whole blood, n=3, mean± S.E, read-out: Elimination Half-life): 14.9 ± 1.3 min; half-life ([2]; red blood cells, rabbit red blood cell, n=3, mean± S.E, read-out: Elimination Half-life): 26.2 ± 4.8 min; converted time, which converts 90% dinalbuphine sebacoyl ester(SDN) into Nalbuphine ([3]; dog): 95 min; half-life ([3]; dog blood test, read-out: half life): 27.8 min; half-life ([3]; dog plasma, n=3, read-out: Elimination Half-life): 27.8 ± 0.5 min; half-life ([3]; dog whole blood, n=3, read-out: Elimination Half-life): 30.5 ± 0.8 min; half-life ([3]; red blood cells, dog red blood cell, n=3, read-out: Elimination Half-life): 33.4 ± 1.4 min; converted time, which converts 90% dinalbuphine sebacoyl ester(SDN) into Nalbuphine ([4]; human): 30 min; half-life ([4]; human blood test, read-out: half life): 9 min; half-life ([4]; human plasma, n=3, read-out: Elimination Half-life): 9 ± 0.4 min; half-life ([4]; human whole blood, n=3, read-out: Elimination Half-life): 8.8 ± 0.4 min; half-life ([4]; red blood cells, human red blood cell, n=3, read-out: Elimination Half-life): 7.7 ± 0.4 min; 50% analgesic effect was extended to ([5]; intramuscular injection of 125 µM/kg, Figure 9): 88 h; analgesic effects ([5]; intramuscular injection, 7.8125, 31.25, 125 µM/kg, Figure 8): proportional to the dose administered; analgesic effect relative to Nalbuphine hydrochloride ([5]; intramuscular, Figure 9): 8.8 times; analgesic effect was extended to ([5]; intramuscular, dose administered below 125 µM/kg): 4 to 5 days; analgesic effect estimated (duration) [6]: 4 to 5 days; MRT ([7]; Beagle Dog 2, i.m., Dose 24.3 mg/kg): 78.8 H; MRT ([7]; Beagle Dog 2, i.m., Dose 81.0 mg/kg): 127.2 H; MRT ([7]; Beagle dogs, 30 mg/kg i.m. oily injection, Mean of five dogs): 73.2 H; MRT ([7]; Beagle dogs, 30 mg/kg i.m. oily injection, individual dogs 1-5, listed as SDN, 30 mg/kg): 84.3 H and 78.8 H and 61.1 H and 62.7 H and 79.1 H; kinetic across two doses ([7]; Beagle dogs, Table 6 vs Table 7): linear kinetic; absorption in injection oil vehicle ([7]; Beagle dogs, i.m., Figures 10 and 11): zero order

Question: For `Oc1ccc2c3c1O[C@H]1[C@@H](O)CC[C@@]4(O)[C@@H](C2)N(CC2CCC2)CC[C@]314` [Nalbuphine], which “amount of released Nalbuphine free base” value ([8]; between 17 and 28 hours) is on record?
Answer: less in the preparation with sesame oil than with peanut oil and the phosphate buffer

Question: What about the release rate ([8]; sesame oil as the vehicle vs the other three preparations, between 1 and 11 hours) of the same molecule?
Answer: slowest release rate

Question: And the “addiction, synergistic effect and respiratory inhibition” value [9]?
Answer: no significant addiction and synergistic effect was found, but only slight respiratory inhibition

Question: What about the analgesic duration ([10]; 25 micromole per kg intramuscularly, in sesame oil, compared with each preparation of MonoNalbuphine derivatives, Fig. 5) of the same molecule?
Answer: significantly shorter

Question: Which analgesic effects ([5]; intramuscular injection, 15.625, 62.5, 250 µM/kg, Figure 6) does the source give for `Oc1ccc2c3c1O[C@H]1[C@@H](O)CC[C@@]4(O)[C@@H](C2)N(CC2CCC2)CC[C@]314` [Nalbuphine hydrochloride] here?
Answer: significant analgesic effects

Question: What about the analgesic effects [11] of the same molecule?
Answer: significant analgesic effects

Question: What about the half-life [12] of the same molecule?
Answer: ~60 min

Question: And the “maximal analgesic effect found at (dose)” value [10]?
Answer: 100 mg/kg

Question: Which “dose needed to elicit the same analgesic effect” value [13] does the source give for `CN1CC[C@]23c4c5ccc(O)c4O[C@H]2[C@@H](O)C=C[C@H]3[C@H]1C5` [Morphine] here?
Answer: 10 mg

Question: Which “maximal analgesic effect found at (dose)” value [10] does the source give for `CN1CC[C@]23c4c5ccc(O)c4O[C@H]2[C@@H](O)C=C[C@H]3[C@H]1C5.Cl` [Morphine hydrochloride] here?
Answer: 10 mg/kg

Question: Which “dose needed to elicit the same analgesic effect” value [13] does the source give for `Oc1ccc2c(c1)[C@@]13CCCC[C@@]1(O)[C@@H](C2)N(CC1CCC1)CC3` [Butorphanol] here?
Answer: 2 mg
